In paper PMC7932537, “Quantitative profiling of protease specificity” (PLoS Computational Biology, 2021):

Columns and labels:
[1] = system: MMP-9; test: Substrate phage display with NGS: relative probability (RP) of P3-P1' tetramer clusters; type: biochemical, human; details: MMP9; RP of the substrate's P3-P1' tetramer, substrate phage display with NGS;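 note: ratio of tetramer probability after protease selection to that in naive phage library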
[2] = target: T1, MMP-2 (Homo sapiens, UniProt P08253); test: K(obs) of individual phage substrates (set of 1369); type: biochemical; details: MMP2; individual phage substrate from the set of 1369 peptides; hyphen in the sequence marks the cleavage position
T1 sequence (P08253 110-660): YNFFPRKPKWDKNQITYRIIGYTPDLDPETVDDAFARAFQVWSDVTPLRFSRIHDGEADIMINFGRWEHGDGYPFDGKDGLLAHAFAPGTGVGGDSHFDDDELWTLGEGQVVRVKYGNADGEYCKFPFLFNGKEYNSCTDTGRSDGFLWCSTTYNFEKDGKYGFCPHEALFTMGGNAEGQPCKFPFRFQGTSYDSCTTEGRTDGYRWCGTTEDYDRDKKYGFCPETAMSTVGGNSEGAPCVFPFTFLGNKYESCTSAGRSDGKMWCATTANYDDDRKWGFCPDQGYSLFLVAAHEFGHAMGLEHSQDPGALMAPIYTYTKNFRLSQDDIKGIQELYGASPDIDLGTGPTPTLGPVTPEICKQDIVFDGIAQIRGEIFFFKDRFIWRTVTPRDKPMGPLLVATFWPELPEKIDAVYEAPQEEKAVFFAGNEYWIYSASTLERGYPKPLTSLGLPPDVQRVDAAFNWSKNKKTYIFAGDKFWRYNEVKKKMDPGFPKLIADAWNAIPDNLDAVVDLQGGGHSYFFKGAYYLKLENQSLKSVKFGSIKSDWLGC

[3] = target: MMP-9 (Homo sapiens, UniProt P14780); test: as above; type: biochemical; details: MMP9; individual phage substrate of the set of 1369 peptides; dash in sequence marks cleavage position
MMP-9 (Homo sapiens, UniProt P14780), sequence (P14780 94-707): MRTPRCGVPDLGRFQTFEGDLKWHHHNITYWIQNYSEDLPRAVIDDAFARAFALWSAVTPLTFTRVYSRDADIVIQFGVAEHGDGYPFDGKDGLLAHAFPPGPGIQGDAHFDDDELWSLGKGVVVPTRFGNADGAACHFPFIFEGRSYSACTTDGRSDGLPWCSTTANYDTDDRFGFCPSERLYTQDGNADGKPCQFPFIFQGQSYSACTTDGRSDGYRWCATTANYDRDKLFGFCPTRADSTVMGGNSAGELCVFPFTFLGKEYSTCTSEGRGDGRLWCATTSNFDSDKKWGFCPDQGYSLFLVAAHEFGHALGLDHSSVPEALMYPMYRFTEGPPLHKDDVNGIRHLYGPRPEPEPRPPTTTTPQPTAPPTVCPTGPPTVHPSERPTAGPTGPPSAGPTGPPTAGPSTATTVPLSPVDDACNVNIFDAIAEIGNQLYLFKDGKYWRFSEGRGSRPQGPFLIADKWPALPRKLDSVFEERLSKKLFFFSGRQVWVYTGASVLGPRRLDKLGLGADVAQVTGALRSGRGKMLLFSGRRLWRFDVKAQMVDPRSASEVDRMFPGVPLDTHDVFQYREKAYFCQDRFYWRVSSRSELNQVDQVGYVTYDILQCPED

Kobs [2] [M⁻¹ s⁻¹] | Kobs [3] [M⁻¹ s⁻¹] | Substance | relative probability (RP) [1]
0 | 5461.43 | SNPFK-YTASG | 32.6605
12792.1 | 12792.1 | SGPRW-LMSTA | 47.776
2761.81 | 8941.32 | SGALN-FYSTA | 19.1713
6396.07 | 12792.1 | GVPRA-VTASG | 40.8515
2409.72 | 4922.1 | SGPKW-MRHTA | 51.5185
12792.1 | 12792.1 | GNPLG-IRTAS | 48.5606
12792.1 | 654.784 | TMLLA-LTASG | 6.729
1418.96 | 2038.8 | GSAIP-LWTAS | 32.5296
1373.05 | 1561.44 | SCVRM-MTASG | 24.5728
12792.1 | 1465.65 | FQIGS-LTASG | 7.1912
12792.1 | 0 | PKLAA-ITASG | 1.188
12792.1 | 2545.25 | YASIR-TASGA | 0.562
10866.7 | 113.394 | ATLAA-WTASG | 1.553
3079.62 | 12792.1 | SGVRA-VYSTA | 25.1531
4335.13 | 7815.03 | SGVKG-MYSTA | 17.5008
6131.32 | 12792.1 | RQPRN-VTASG | 40.3866
6131.32 | 4613.14 | SGPQW-MINTA | 45.9264
12792.1 | 12792.1 | SVPSA-ITASG | 45.9388
12792.1 | 0 | GYFAN-LTASG | 0.8121
12792.1 | 4205.91 | SGVAW-LKHTA | 35.286

The remaining lines, values behind:

Substance | Kobs [2] [M⁻¹ s⁻¹] | Kobs [3] [M⁻¹ s⁻¹] | relative probability (RP) [1]
GRATA-LYTAS | 4082.43 | 1283.43 | 15.5991
SGPKG-MRMTA | 9740.44 | 12792.1 | 48.8441
HAPSL-YTASG | 12792.1 | 12792.1 | 23.6706
SGVRS-ITWTA | 261.974 | 3637.04 | 25.6748
SVPST-LTASG | 12792.1 | 5269.78 | 36.3405
VQLAY-FTASG | 12792.1 | 1030.73 | 0.5079
ERPFF-LTASG | 12792.1 | 12792.1 | 36.9909
WTPRG-NTASG | 231.616 | 2409.72 | 15.8425
GEPLF-LRTAS | 12792.1 | 12792.1 | 38.6603
RAPVA-FTASG | 12792.1 | 12792.1 | 39.0112
SGASN-LRGTA | 12792.1 | 12792.1 | 27.6194
GMVLG-LHTAS | 12792.1 | 12792.1 | 34.6877
GAPAK-LRTAS | 12792.1 | 10866.7 | 39.5582
GNPAQ-MRTAS | 12792.1 | 7015.91 | 38.7952
LPPLG-FTASG | 12792.1 | 10866.7 | 44.5202
GRPRS-LLTAS | 12792.1 | 7815.03 | 44.7764
GRPSF-LKTAS | 12792.1 | 8321.48 | 37.0272
GDPRW-LSTAS | 6688.74 | 9740.44 | 47.776
PQMGS-LTASG | 12792.1 | 201.585 | 3.398

Substance | Kobs [2] [M⁻¹ s⁻¹] | Kobs [3] [M⁻¹ s⁻¹] | relative probability (RP) [1]
NAPNA-LTASG | 12792.1 | 12792.1 | 41.7392
GVPSK-LTASG | 12792.1 | 12792.1 | 38.9571
RRPVA-YTASG | 12792.1 | 12792.1 | 47.2844
NPPSH-LTASG | 12792.1 | 12792.1 | 43.8368
GWIAT-LRTAS | 5090.5 | 1561.44 | 0.199
GMPLG-LRTAS | 10866.7 | 12792.1 | 48.9856
KYHAW-MTASG | 7386.83 | 27.918 | 0.08727
GSHAA-LRTAS | 12792.1 | 0 | 0.9522
QMPLQ-ITASG | 8941.32 | 6131.32 | 44.6329
MALSS-LTASG | 7015.91 | 0 | 4.987
RFPLK-VTASG | 0 | 3438.54 | 22.8859
SSPLA-LTASG | 12792.1 | 12792.1 | 48.3776
PKPAR-LTASG | 12792.1 | 12792.1 | 40.1634
GRLLA-MHTAS | 2687.73 | 1112.44 | 12.6533
EWPSR-MTASG | 6396.07 | 3964.21 | 33.7336
MSPKG-VTASG | 12792.1 | 12792.1 | 38.7703
VYPGK-MTASG | 8941.32 | 1239.69 | 16.9669
TIPSW-STASG | 5461.43 | 2476.66 | 17.8128
